Data taken from patent EP0497314A1, “Use of azapirones in attention deficit hyperactivity disorder” (Bristol-Myers Squibb Company, priority 1991, dated 1992).
Structures can show the parent of a compound that is named as a salt. Marks after values point to notes of the source that are not given here.

Assays:
rabbit cortex = assay: Quantitative EEG, rabbit cortex, intravenous administration; format: in vivo, rabbits; conditions: for group percent change in electrical energy from pre-drug control, Δ band / mean change ± S.E. in electrical energy from pre-drug control, Δ band / group percent change in electrical energy from pre-drug control, α band / mean change ± S.E. in electrical energy from pre-drug control, α band / group percent change in electrical energy from pre-drug control, β band / mean change ± S.E. in electrical energy from pre-drug control, β band / group percent change in electrical energy from pre-drug control, γ band / mean change ± S.E. in electrical energy from pre-drug control, γ band / group percent change in electrical energy from pre-drug control, θ band / mean change ± S.E. in electrical energy from pre-drug control, θ band: rabbit cortex; for group percent change in electrical energy from pre-drug control, Δ band / mean change ± S.E. in electrical energy from pre-drug control, Δ band: Δ = 0.5-3.5 Hz; for group percent change in electrical energy from pre-drug control, α band / mean change ± S.E. in electrical energy from pre-drug control, α band: α= 7-13 Hz; for group percent change in electrical energy from pre-drug control, β band / mean change ± S.E. in electrical energy from pre-drug control, β band: β= 13-25 Hz; for group percent change in electrical energy from pre-drug control, γ band / mean change ± S.E. in electrical energy from pre-drug control, γ band: γ= 25-40 Hz; for group percent change in electrical energy from pre-drug control, θ band / mean change ± S.E. in electrical energy from pre-drug control, θ band: θ= 3.5-7.0 Hz
Summary of the method: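 Restrained rabbits with cortical leads had EEG split into Δ, ϑ, α, β and γ bands and integrated over 1 h from the moment of i.v. injection, in saline, dosed as free base. Counts were compared with each animal's own pretreatment control by paired t-test (p≦0.05). Doses were reduced geometrically to a no-effect level.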

[1] = tested on: fronto-occipital cortex of the cat; assay: Quantitative EEG, fronto-occipital cat cortex, subcutaneous administration; format: in vivo, cats; conditions: for group percent change in electrical energy from pre-drug control, Δ band / mean change ± S.E. in electrical energy from pre-drug control, Δ band / group percent change in electrical energy from pre-drug control, α band / mean change ± S.E. in electrical energy from pre-drug control, α band / group percent change in electrical energy from pre-drug control, β band / mean change ± S.E. in electrical energy from pre-drug control, β band / group percent change in electrical energy from pre-drug control, γ band / mean change ± S.E. in electrical energy from pre-drug control, γ band / group percent change in electrical energy from pre-drug control, θ band / mean change ± S.E. in electrical energy from pre-drug control, θ band: fronto-occipital cat cortex; for group percent change in electrical energy from pre-drug control, Δ band / mean change ± S.E. in electrical energy from pre-drug control, Δ band: Δ = 0.05-35 Hz; for group percent change in electrical energy from pre-drug control, α band / mean change ± S.E. in electrical energy from pre-drug control, α band: α= 7-13 Hz; for group percent change in electrical energy from pre-drug control, β band / mean change ± S.E. in electrical energy from pre-drug control, β band: β= 13-25 Hz; for group percent change in electrical energy from pre-drug control, γ band / mean change ± S.E. in electrical energy from pre-drug control, γ band: γ= 25-40 Hz; for group percent change in electrical energy from pre-drug control, θ band / mean change ± S.E. in electrical energy from pre-drug control, θ band: θ= 3.5-7.0 Hz
Summary of the method: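 Adult female mongrel cats (n=6 per group) with implanted electrodes were recorded while held in restraining bags, with EEG filtered into Δ, ϑ, α, β and γ bands and integrated as energy counts. Drugs were given subcutaneously in saline, with doses calculated as free base, and recording started 30 min post-injection. Changes from each animal's pre-treatment control were tested by paired Student t-test (P≦0.05).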

COC(=O)C(c1ccccc1)C1CCCCN1 (stereo not drawn) [Methylphenidate HCl, methylphenidate]
minimal effective dose (rabbit cortex; Oryctolagus cuniculus, iv, read-out: the minimum dose required to produce the EEG profile characteristic of that particular drug): 0.125 mg/kg | relative potency by comparing minimal doses required to elicit EEG profiles (rabbit cortex; rabbit cortex EEG, i.v.): approximately four times more potent than buspirone | the no-effect dose (rabbit cortex; rabbit cortex EEG, dose of free base): 0.0625† mg/kg, i.v. | group percent change in electrical energy from pre-drug control, Δ band (rabbit cortex; 0.0625 mg/kg free base i.v.): +3% | mean change ± S.E. in electrical energy from pre-drug control, Δ band (rabbit cortex; 0.0625 mg/kg free base i.v.): +7 ± 19 instrument counts | group percent change in electrical energy from pre-drug control, Δ band (rabbit cortex; 0.125 mg/kg free base i.v.): -36% | mean change ± S.E. in electrical energy from pre-drug control, Δ band (rabbit cortex; 0.125 mg/kg free base i.v.): -120 ± 36 instrument counts | group percent change in electrical energy from pre-drug control, α band (rabbit cortex; 0.0625 mg/kg free base i.v.): +6% | mean change ± S.E. in electrical energy from pre-drug control, α band (rabbit cortex; 0.0625 mg/kg free base i.v.): +8 ± 10 instrument counts | group percent change in electrical energy from pre-drug control, α band (rabbit cortex; 0.125 mg/kg free base i.v.): -23% | mean change ± S.E. in electrical energy from pre-drug control, α band (rabbit cortex; 0.125 mg/kg free base i.v.): -47 ± 16 instrument counts | group percent change in electrical energy from pre-drug control, β band (rabbit cortex; 0.0625 mg/kg free base i.v.): +4% | mean change ± S.E. in electrical energy from pre-drug control, β band (rabbit cortex; 0.0625 mg/kg free base i.v.): +4 ± 6 instrument counts | group percent change in electrical energy from pre-drug control, β band (rabbit cortex; 0.125 mg/kg free base i.v.): -22% | mean change ± S.E. in electrical energy from pre-drug control, β band (rabbit cortex; 0.125 mg/kg free base i.v.): -35 ± 6 instrument counts | group percent change in electrical energy from pre-drug control, γ band (rabbit cortex; 0.0625 mg/kg free base i.v.): -1% | mean change ± S.E. in electrical energy from pre-drug control, γ band (rabbit cortex; 0.0625 mg/kg free base i.v.): -1 ± 2 instrument counts | group percent change in electrical energy from pre-drug control, γ band (rabbit cortex; 0.125 mg/kg free base i.v.): -7% | mean change ± S.E. in electrical energy from pre-drug control, γ band (rabbit cortex; 0.125 mg/kg free base i.v.): -9 ± 2 instrument counts | group percent change in electrical energy from pre-drug control, θ band (rabbit cortex; 0.0625 mg/kg free base i.v.): +6% | mean change ± S.E. in electrical energy from pre-drug control, θ band (rabbit cortex; 0.0625 mg/kg free base i.v.): +3 ± 9 instrument counts | group percent change in electrical energy from pre-drug control, θ band (rabbit cortex; 0.125 mg/kg free base i.v.): -24% | mean change ± S.E. in electrical energy from pre-drug control, θ band (rabbit cortex; 0.125 mg/kg free base i.v.): -60 ± 16 instrument counts | minimal effective dose ([1]; Felis catus, sc, read-out: the minimum dose required to produce the EEG profile characteristic of that particular drug): 0.25 mg/kg | relative potency by comparing minimal doses required to elicit EEG profiles ([1]; cat cortex EEG, s.c.): equal potency | the no-effect dose ([1]; fronto-occipital cat cortex EEG, dose of free base): 0.125† mg/kg, s.c. | group percent change in electrical energy from pre-drug control, Δ band ([1]; 0.125 mg/kg free base s.c.): -22% | mean change ± S.E. in electrical energy from pre-drug control, Δ band ([1]; 0.125 mg/kg free base s.c.): -44 ± 18 instrument counts | group percent change in electrical energy from pre-drug control, Δ band ([1]; 0.25 mg/kg free base s.c.): -14% | mean change ± S.E. in electrical energy from pre-drug control, Δ band ([1]; 0.25 mg/kg free base s.c.): -31 ± 18 instrument counts | group percent change in electrical energy from pre-drug control, Δ band ([1]; 1.0 mg/kg free base s.c.): -2% | mean change ± S.E. in electrical energy from pre-drug control, Δ band ([1]; 1.0 mg/kg free base s.c.): -4 ± 30 instrument counts | group percent change in electrical energy from pre-drug control, Δ band ([1]; 4.0 mg/kg free base s.c.): -8% | mean change ± S.E. in electrical energy from pre-drug control, Δ band ([1]; 4.0 mg/kg free base s.c.): -16 ± 45 instrument counts | group percent change in electrical energy from pre-drug control, α band ([1]; 0.125 mg/kg free base s.c.): -18% | mean change ± S.E. in electrical energy from pre-drug control, α band ([1]; 0.125 mg/kg free base s.c.): -24 ± 10 instrument counts | group percent change in electrical energy from pre-drug control, α band ([1]; 0.25 mg/kg free base s.c.): -31% | mean change ± S.E. in electrical energy from pre-drug control, α band ([1]; 0.25 mg/kg free base s.c.): -39 ± 12 instrument counts | group percent change in electrical energy from pre-drug control, α band ([1]; 1.0 mg/kg free base s.c.): -46% | mean change ± S.E. in electrical energy from pre-drug control, α band ([1]; 1.0 mg/kg free base s.c.): -52 ± 14 instrument counts | group percent change in electrical energy from pre-drug control, α band ([1]; 4.0 mg/kg free base s.c.): -51% | mean change ± S.E. in electrical energy from pre-drug control, α band ([1]; 4.0 mg/kg free base s.c.): -63 ± 11 instrument counts | group percent change in electrical energy from pre-drug control, β band ([1]; 0.125 mg/kg free base s.c.): -2% | mean change ± S.E. in electrical energy from pre-drug control, β band ([1]; 0.125 mg/kg free base s.c.): -3 ± 5 instrument counts | group percent change in electrical energy from pre-drug control, β band ([1]; 0.25 mg/kg free base s.c.): -9% | mean change ± S.E. in electrical energy from pre-drug control, β band ([1]; 0.25 mg/kg free base s.c.): -11 ± 4 instrument counts | group percent change in electrical energy from pre-drug control, β band ([1]; 1.0 mg/kg free base s.c.): -19% | mean change ± S.E. in electrical energy from pre-drug control, β band ([1]; 1.0 mg/kg free base s.c.): -20 ± 5 instrument counts | group percent change in electrical energy from pre-drug control, β band ([1]; 4.0 mg/kg free base s.c.): -12% | mean change ± S.E. in electrical energy from pre-drug control, β band ([1]; 4.0 mg/kg free base s.c.): -14 ± 4 instrument counts | group percent change in electrical energy from pre-drug control, γ band ([1]; 0.125 mg/kg free base s.c.): +7% | mean change ± S.E. in electrical energy from pre-drug control, γ band ([1]; 0.125 mg/kg free base s.c.): +6 ± 2 instrument counts | group percent change in electrical energy from pre-drug control, γ band ([1]; 0.25 mg/kg free base s.c.): +9% | mean change ± S.E. in electrical energy from pre-drug control, γ band ([1]; 0.25 mg/kg free base s.c.): +7 ± 2 instrument counts | group percent change in electrical energy from pre-drug control, γ band ([1]; 1.0 mg/kg free base s.c.): +13% | mean change ± S.E. in electrical energy from pre-drug control, γ band ([1]; 1.0 mg/kg free base s.c.): +10 ± 3 instrument counts | group percent change in electrical energy from pre-drug control, γ band ([1]; 4.0 mg/kg free base s.c.): +35% | mean change ± S.E. in electrical energy from pre-drug control, γ band ([1]; 4.0 mg/kg free base s.c.): +25 ± 5 instrument counts | group percent change in electrical energy from pre-drug control, θ band ([1]; 0.125 mg/kg free base s.c.): -20% | mean change ± S.E. in electrical energy from pre-drug control, θ band ([1]; 0.125 mg/kg free base s.c.): -31 ± 11 instrument counts | group percent change in electrical energy from pre-drug control, θ band ([1]; 0.25 mg/kg free base s.c.): -27% | mean change ± S.E. in electrical energy from pre-drug control, θ band ([1]; 0.25 mg/kg free base s.c.): -38 ± 16 instrument counts | group percent change in electrical energy from pre-drug control, θ band ([1]; 1.0 mg/kg free base s.c.): -34% | mean change ± S.E. in electrical energy from pre-drug control, θ band ([1]; 1.0 mg/kg free base s.c.): -45 ± 17 instrument counts | group percent change in electrical energy from pre-drug control, θ band ([1]; 4.0 mg/kg free base s.c.): -41% | mean change ± S.E. in electrical energy from pre-drug control, θ band ([1]; 4.0 mg/kg free base s.c.): -56 ± 14 instrument counts
